Measurements taken from US20080200405A1, “Drug Resistance Reversal In Neoplastic Disease” (priority 2007, published 2008).

Assays:
[1] = system: drug sensitive and resistant cell lines SKN-SH, Neuro2A, Saos2, HL-60; test: Reversal of drug resistance in various cancer types (OT-551 with or without doxorubicin); assay type: cell-based, human, murine; conditions: in combination with doxorubicin; 96 hours
Experimental: This example illustrates that OT-551 and analogs reverse drug resistance to non-anthracycline drugs in various cancer types. The effects of analogs were tested on drug sensitive and resistant (R) cell lines corresponding to various cancer types, including the human neuroblastoma cell line SKN-SH (ATCC Cat. No. HTB-1), the murine neuroblastoma cell line Neuro2A (ATCC Cat. No. CCL-131), the osteosarcoma cells Saos2 (ATCC Cat. No. HTB-85) and the leukemia cell line HL-60 (ATCC Cat. No. CCL240). The cells were treated with OT-551 with or without doxorubicin as described above. Cell viability was calculated after 96 hours of incubation with the drug combination.

[2] = Ocular permeability and retina levels after topical administration; assay type: in vivo
[3] = system: H2O2-induced angiogenesis in the CAM model; test: H2O2-induced angiogenesis in the CAM model; assay type: in vivo, chicken; conditions: for % Inhibition ± SD / Branch pts ± SEM: H2O2 88 μM, 30 ng
Experimental: (§1) In vivo neovascularization was examined by the method previously described by Auerbach et al. (J. Dev. Biol. 41:391-394 (1974)). Ten-day old chicken embryos were purchased from Spafas, Inc. (Preston, Conn.) and were incubated at 37° C. with 55% relative humidity. In the dark, with the aid of a candling lamp, a small hole was punctured in the shell concealing the air sac with a hypodermic needle. A second hole was punctured in the shell on the broadside of the egg directly over an […] portion of the embryonic membrane, as observed during candling. An artificial air sac was created beneath the second hole by applying gentle vacuum to the first hole using a small rubber squeeze bulb. The vacuum caused the chorioallantoic membrane (CAM) to separate from the shell.
(§2) A pro-angiogenic agent was added to induce new blood vessel branches on the CAM of 10-day old embryos. Filter disks of #1 filter paper (Whatman International, United Kingdom) were punched using a small puncher and were soaked in 3 mg/mL cortisone acetate (Sigma, St. Louis, Mo.) in a solution (95% ethanol and water). The disks were subsequently air dried under sterile conditions. The disks were then suspended in PBS (Phosphate Buffered Saline) and placed on growing CAMs. Filters treated with TP-H (TEMPOL-H) or TEMPOL and/or H2O2 or TP-H and/or bFGF or VEGF were placed on the first day of the 3-day incubation.
(§3) The number of vessel branch points contained in a circular region equal to the area of a filter disk was counted for each section. Percent inhibition data are expressed as the quotient of the experimental value minus the negative control value divided by the difference between the positive control value and the negative control value. One image was counted in each CAM preparation, and findings from eight CAM preparations were analyzed for each treatment condition. In addition, each experiment was performed three times. The resulting angiogenesis index is the mean ±SEM (Standard Error of Measurement) of new branch points in each set of treatment. Statistical analysis of blood vessel branching patterns are performed by 1-way analysis of variance (ANOVA) comparing experimental with corresponding control groups. Statistical significance differences are assessed at P value of <0.05.
TP-H (TEMPOL-H, the hydroxylamine reduced form of the nitroxide 4-hydroxy-2,2,6,6-tetramethylpiperidin-1-yloxy) or TEMPOL (4-hydroxy-2,2,6,6-tetramethylpiperidine-N-oxyl radical) was applied to the CAM model study to determine its respective anti-angiogenesis effects according to the materials and methods provided in Example 1. H2O2 was used to induce angiogensis in the CAM model.

[4] = system: VEGF-induced angiogenesis in the CAM model; test: VEGF-induced angiogenesis in the CAM model; assay type: in vivo, chicken; conditions: for Mean % Inhibition ± SD / Mean Branch points ± SD: VEGF 2 μg/ml
Experimental: as §1, §2, §3
TP-H was applied to the CAM model study to determine its respective anti-angiogenesis effects according to the materials and methods described above. VEGF was used to induce angiogenesis in the CAM model.

[5] = system: selenite induced cataract; test: Selenite induced cataract in mice; conditions: mouse, in vivo
From the text: In addition, as mentioned above, there is no precedent for the prevention of growth factor-induced angiogenesis by either TEMPOL or hydroxylamines.

[6] = In vitro stability in rat, rabbit, dog, and human plasma (overall statement); assay type: in vitro ADME; conditions: 240 minute incubation in plasma
Experimental: The active metabolite of OT-551 (Cyclopropanecarboxylic acid 1-hydroxy-2,2,6,6-tetramethyl-piperidin-4-yl ester) is TP-H. The objective of this analysis was to determine the in vitro half-life of OT-551 in rat, rabbit, dog, and human plasma under standardized incubation conditions.
OT-551 was incubated with pooled rat, rabbit, dog, and human plasma for various times under standardized incubation conditions. Pre-labeled tubes containing pooled plasma from rats, rabbits, dogs, and humans were pre-incubated in a shaking 37° C. water bath. A OT-551 solution was added to the tubes at a final concentration of 1000 ng/mL. Time zero samples (n=5) were immediately removed and transferred into tubes containing a stabilizer solution (DTPA, acetylcysteine and ascorbic acid), the LC/MS/MS assay internal standard and methanol. […] The tubes were vortexed, placed on ice, followed by centrifugation. One hundred-μL aliquots of the supernatant were transferred into HPLC sample vials. Additional tubes (n=5 at each time point) were incubated for 5, 10, 20, 30, 60, 120, and 240 minutes at 37° C. and thereafter processed. The amount of OT-551 and TP-H in each incubated sample was quantified using validated LC/MS/MS assays.

With `CC1(C)CC(OC(=O)C2CC2)CC(C)(C)N1O.Cl` [OT-551, 1-hydroxy-4-cyclopropanecarbonyloxy-2,2,6,6-tetramethylpiperidine hydrochloride] the “effect on doxorubicin toxicity” value [1] was “able to enhance doxorubicin toxicity in all the drug resistant cell lines tested”, the “levels in the retina” value ([2]; after topical administration) was “good levels in the retina” and the “permeability through the cornea” value ([2]; in vivo) was “good permeability through the cornea”.
For `CC1(C)CC(O)CC(C)(C)N1O` [TEMPOL-H], the “% Inhibition ± SD” value ([3]; 100 μg) was 28.0 ± 13.6 %, the “Branch pts ± SEM” value ([3]; 100 μg) was 155 ± 14.4 and the “% Inhibition ± SD” value ([3]; 200 μg) was 32.9 ± 8.4 %. For the same compound, the “Branch pts ± SEM” value ([3]; 200 μg) was 151.3 ± 15.3, the “% Inhibition ± SD” value ([3]; 400 μg) was 44.7 ± 6.6 % and the “Branch pts ± SEM” value ([3]; 400 μg) was 137.2 ± 6.9. The “% Inhibition ± SD” value ([3]; 800 μg) was 55.7 ± 7.2 %, the “Branch pts ± SEM” value ([3]; 800 μg) was 127.3 ± 6.4 and the “inhibition of angiogenesis induced by super-maximal concentrations of H2O2” value ([3]; in vivo) was “effectively inhibited”. The “Mean % Inhibition ± SD” value ([4]; 100 μg) was 37.6 ± 6.9 %, the “Mean Branch points ± SD” value ([4]; 100 μg) was 154.8 ± 7.5 and the “Mean % Inhibition ± SD” value ([4]; 200 μg) was 42 ± 3.5 %. For the same compound, the “Mean Branch points ± SD” value ([4]; 200 μg) was 150 ± 3.8, the “Mean % Inhibition ± SD” value ([4]; 400 μg) was 53.3 ± 3.3 % and the “Mean Branch points ± SD” value ([4]; 400 μg) was 137.8 ± 3.0. For the same compound, the “Mean % Inhibition ± SD” value ([4]; 800 μg) was 70.7 ± 9.1 %, the “Mean Branch points ± SD” value ([4]; 800 μg) was 118.8 ± 9.9 and the “inhibition of VEGF-induced angiogenesis” value ([4]; in vivo) was “dose-dependent inhibition”. The “prevention of selenite induced cataract” value [5] was “effective” and the “stability of TP-H during the incubation period” value [6] was “stable during the 240 minute incubation period”.
